{"source": "patent US20240050576A1", "about": "“METHODS AND COMPOUNDS FOR THE TREATMENT OF GENETIC DISEASE” (Design Therapeutics, Inc., priority 2020, published 2024)"}
{"test_system": "human FXN", "assay": "FXN mRNA expression by qRT-PCR in GM15850 cells after 48 hr compound treatment", "type": "cell-based", "conditions": "Homo sapiens; GM15850 cells, 48 hr incubation, hFXN normalized to hGAPDH; read-out: EC50 WT (nM, 48 hr)", "experimental": "Cell culture: Cells were cultured in RPMI1640 medium+15% FBS. Cells were maintained at a density between 2e5/mL and 1e6/mL. Cells were centrifuged, resuspended in fresh medium, counted and plated at 150,000 cells per well in 100 uL in a non-coated, flat bottom tissue culture plate.\nCompound treatment: 10 mM stock solution of FA GeneTAC was diluted 1:10 in DMSO followed by a 1:100 dilution in growth medium. […] Compound was then diluted at a 1:3 ratio into growth medium containing 0.01% DMSO. 5-point, 3-fold dose response curve was generated. 11 μL of 10× compound was added to wells containing 100 μL cell suspension of GM15850. 11 μL growth medium containing 0.01% DMSO was added to all wells not treated with FA GeneTAC. Cells were allowed to incubate for 48 hrs prior to cell lysis using guanidine isothiocyanate solution.\nRNA isolation: Total RNA was isolated and purified in 384-well column filter plates using chaotropic salt.\nqRT-PCR: qRT-PCR reactions were assembled using AgPath-ID reagents (Thermo Fisher) using 6 uL mastermix and 4 μL RNA. qRT-PCR TaqMan primer probe sets against human FXN (Assay ID Hs01075496_m1) and human GAPDH (Assay ID Hs00266705_g1) were used to measure the intended targets. qRT-PCR was run on the ThermoFisher QuantStudio 6 PRO instrument using the manufacturer's recommended cycling conditions.\nData analysis: qPCR data was analyzed using Thermo Fisher Design and Analysis software. Data was exported to Excel and hFXN expression was normalized to hGAPDH expression.", "units": {"EC50": "nM"}}
{"molecule": "Cc1sc2c(c1C)C(c1ccc(Cl)cc1)=N[C@@H](CC(=O)Nc1ccc(OCCOCCOCCOCC(=O)N3CCN(CCOCCOCCOCCNC(=O)CCNC(=O)c4nc(NC(=O)CCNC(=O)c5cc(NC(=O)c6nc(NC(=O)CCNC(=O)c7cc(NC(=O)c8nccn8C)cn7C)cn6C)cn5C)cn4C)CC3)cc1)c1nnc(C)n1-2", "note": "[Compound 39]", "EC50": "< 100"}
{"molecule": "Cc1sc2c(c1C)C(c1ccc(Cl)cc1)=N[C@@H](CC(=O)Nc1ccc(OCCOCCOCCOCCN3CCN(CCOCCOCCOCCNC(=O)CCNC(=O)c4nc(NC(=O)CCNC(=O)c5cc(NC(=O)c6nc(NC(=O)CCNC(=O)c7cc(NC(=O)c8nccn8C)cn7C)cn6C)cn5C)cn4C)CC3)cc1)c1nnc(C)n1-2", "note": "[Compound 40]", "EC50": "< 100"}
{"molecule": "Cc1noc(C)c1-c1cnc2c(-c3ccc(C(=O)NCCOCCOCCOCCOCCOCCOCCOCCNC(=O)CCNC(=O)c4nc(NC(=O)CCNC(=O)c5cc(NC(=O)c6nc(NC(=O)CCNC(=O)c7cc(NC(=O)c8nccn8C)cn7C)cn6C)cn5C)cn4C)cc3)cn([C@@H](C)c3ccccn3)c2c1", "note": "[Compound 41]", "EC50": "100 to 500"}
{"molecule": "Cc1noc(C)c1-c1cnc2c(-c3ccc(C(=O)NCCOCCOCCOCCOCCOCCOCCOCCOCCNC(=O)CCNC(=O)c4nc(NC(=O)CCNC(=O)c5cc(NC(=O)c6nc(NC(=O)CCNC(=O)c7cc(NC(=O)c8nccn8C)cn7C)cn6C)cn5C)cn4C)cc3)cn([C@@H](C)c3ccccn3)c2c1", "note": "[Compound 42]", "EC50": "< 100"}
{"molecule": "COC[C@@H](C)n1c(C2CCN(C(=O)COCCOCCOCCOCCOCCOCCOCCNC(=O)CCNC(=O)c3nc(NC(=O)CCNC(=O)c4cc(NC(=O)c5nc(NC(=O)CCNC(=O)c6cc(NC(=O)c7nccn7C)cn6C)cn5C)cn4C)cn3C)CC2)nc2cnc3cc(-c4c(C)noc4C)c(OC)cc3c21", "note": "[Compound 43, N-[5-[(2-[[2-([2-[(23-[4-[7-(3,5-dimethyl-1,2-oxazol-4-yl)-8-methoxy-1-[(2R)-1-methoxypropan-2-yl]imidazo[4,5-c]quinolin-2-yl]piperidin-1-yl]-23-oxo-3,6,9,12,15,18,21-heptaoxatricosan-1-yl)carbamoyl]ethyl]carbamoyl)-1-methylimidazol-4-yl]carbamoyl]ethyl)carbamoyl]-1-methylpyrrol-3-yl]-1-methyl-4-(3-[[1-methyl-4-(1-methylimidazole-2-amido)pyrrol-2-yl]formamido]propanamido) imidazole-2-carboxamide]", "EC50": "> 500"}
{"molecule": "COC[C@@H](C)n1c(C2CCN(C(=O)COCCOCCOCCOCCOCCOCCOCCOCCNC(=O)CCNC(=O)c3nc(NC(=O)CCNC(=O)c4cc(NC(=O)c5nc(NC(=O)CCNC(=O)c6cc(NC(=O)c7nccn7C)cn6C)cn5C)cn4C)cn3C)CC2)nc2cnc3cc(-c4c(C)noc4C)c(OC)cc3c21", "note": "[Compound 44]", "EC50": "100 to 500"}
{"molecule": "CC(=O)N1c2ccc(C3=CCN(C(=O)COCCOCCOCCOCCOCCOCCOCCNC(=O)CCNC(=O)c4nc(NC(=O)CCNC(=O)c5cc(NC(=O)c6nc(NC(=O)CCNC(=O)c7cc(NC(=O)c8nccn8C)cn7C)cn6C)cn5C)cn4C)CC3)cc2N(Cc2ccccc2CO)C[C@@H]1C1CC1", "note": "[Compound 45]", "EC50": "100 to 500"}
{"molecule": "CC(=O)N1c2ccc(C3=CCN(C(=O)COCCOCCOCCOCCOCCOCCOCCOCCNC(=O)CCNC(=O)c4nc(NC(=O)CCNC(=O)c5cc(NC(=O)c6nc(NC(=O)CCNC(=O)c7cc(NC(=O)c8nccn8C)cn7C)cn6C)cn5C)cn4C)CC3)cc2N(Cc2ccccc2CO)C[C@@H]1C1CC1", "note": "[Compound 46]", "EC50": "100 to 500"}
{"molecule": "CC(=O)N1c2ccc(-c3cnc(C(=O)NCCOCCOCCOCCOCCOCCOCCOCCOCCNC(=O)CCNC(=O)c4nc(NC(=O)CCNC(=O)c5cc(NC(=O)c6nc(NC(=O)CCNC(=O)c7cc(NC(=O)c8nccn8C)cn7C)cn6C)cn5C)cn4C)nc3)cc2N(Cc2ccccc2CO)C[C@@H]1C1CC1", "note": "[Compound 48, N-(5-[[2-([2-[(2-[[26-([5-[(2S)-1-acetyl-2-cyclopropyl-4-[[2-(hydroxymethyl)phenyl]methyl]-2,3-dihydroquinoxalin-6-yl]pyrimidin-2-yl]formamido)-3,6,9,12,15,18,21,24-octaoxahexacosan-1-yl]carbamoyl]ethyl)carbamoyl]-1-methylimidazol-4-yl]carbamoyl)ethyl]carbamoyl]-1-methylpyrrol-3-yl)-1-methyl-4-(3-[[1-methyl-4-(1-methylimidazole-2-amido)pyrrol-2-yl]formamido]propanamido)imidazole-2-carboxamide]", "EC50": "> 500"}
{"molecule": "CCCNC(=O)CCNC(=O)c1nc(NC(=O)CCNC(=O)c2cc(NC(=O)c3nc(NC(=O)CCNC(=O)c4cc(NC(=O)c5nc(NC(=O)COCCOCCOCCOCCOCCOCCOCCOc6ccc(NC(=O)C[C@@H]7N=C(c8ccc(Cl)cc8)c8c(sc(C)c8C)-n8c(C)nnc87)cc6)cn5C)cn4C)cn3C)cn2C)cn1C", "note": "[Compound 49]", "EC50": "< 100"}
{"molecule": "CCCNC(=O)CCNC(=O)c1nc(NC(=O)CCNC(=O)c2cc(NC(=O)c3nc(NC(=O)CCNC(=O)c4cc(NC(=O)c5nc(NC(=O)COCCOCCOCCOCCOCCOCCOCCOCCOc6ccc(NC(=O)C[C@@H]7N=C(c8ccc(Cl)cc8)c8c(sc(C)c8C)-n8c(C)nnc87)cc6)cn5C)cn4C)cn3C)cn2C)cn1C", "note": "[Compound 50]", "EC50": "< 100"}
{"molecule": "CCCNC(=O)c1nc(NC(=O)CCNC(=O)c2cc(NC(=O)c3nc(NC(=O)CCNC(=O)c4cc(NC(=O)c5nc(NC(=O)CCNC(=O)COCCOCCOCCOCCOCCOCCOCCOc6ccc(NC(=O)C[C@@H]7N=C(c8ccc(Cl)cc8)c8c(sc(C)c8C)-n8c(C)nnc87)cc6)cn5C)cn4C)cn3C)cn2C)cn1C", "note": "[Compound 51]", "EC50": "< 100"}
{"molecule": "CCCNC(=O)c1nc(NC(=O)CCNC(=O)c2cc(NC(=O)c3nc(NC(=O)CCNC(=O)c4cc(NC(=O)c5nc(NC(=O)CCNC(=O)COCCOCCOCCOCCOCCOCCOCCOCCOc6ccc(NC(=O)C[C@@H]7N=C(c8ccc(Cl)cc8)c8c(sc(C)c8C)-n8c(C)nnc87)cc6)cn5C)cn4C)cn3C)cn2C)cn1C", "note": "[Compound 52]", "EC50": "< 100"}
{"molecule": "Cc1sc2c(c1C)C(c1ccc(Cl)cc1)=N[C@@H](CC(=O)Nc1ccc(OCCOCCOCCOCCOCCOCCC(=O)N(C)CCCN(C)CCCNC(=O)CCNC(=O)c3nc(NC(=O)CCNC(=O)c4cc(NC(=O)c5nc(NC(=O)CCNC(=O)c6cc(NC(=O)c7nccn7C)cn6C)cn5C)cn4C)cn3C)cc1)c1nnc(C)n1-2", "note": "[Compound 53]", "EC50": "100 to 500"}
{"molecule": "Cc1sc2c(c1C)C(c1ccc(Cl)cc1)=N[C@@H](CC(=O)Nc1ccc(OCCOCCOCCOCCOCCOCCC(=O)N(C)CCCN(C)CCCN(C)C(=O)CCNC(=O)c3nc(NC(=O)CCNC(=O)c4cc(NC(=O)c5nc(NC(=O)CCNC(=O)c6cc(NC(=O)c7nccn7C)cn6C)cn5C)cn4C)cn3C)cc1)c1nnc(C)n1-2", "note": "[Compound 54]", "EC50": "100 to 500"}
{"molecule": "Cc1sc2c(c1C)C(c1ccc(Cl)cc1)=N[C@@H](CC(=O)Nc1ccc(OCCOCCOCCOCCOCCOCCOCCC(=O)NCCCN(C)CCCNC(=O)c3cc(NC(=O)c4nc(NC(=O)CCNC(=O)c5cc(NC(=O)c6nc(NC(=O)CCNC(=O)c7cc(NC(=O)c8nccn8C)cn7C)cn6C)cn5C)cn4C)cn3C)cc1)c1nnc(C)n1-2", "note": "[Compound 55]", "EC50": "100 to 500"}
{"molecule": "Cc1sc2c(c1C)C(c1ccc(Cl)cc1)=N[C@@H](CC(=O)Nc1ccc(OCCOCCOCCOCCOCCOCCOCCOCCC(=O)NCCCN(C)CCCNC(=O)c3cc(NC(=O)c4nc(NC(=O)CCNC(=O)c5cc(NC(=O)c6nc(NC(=O)CCNC(=O)c7cc(NC(=O)c8nccn8C)cn7C)cn6C)cn5C)cn4C)cn3C)cc1)c1nnc(C)n1-2", "note": "[Compound 56]", "EC50": "100 to 500"}
{"molecule": "Cc1sc2c(c1C)C(c1ccc(Cl)cc1)=N[C@@H](CC(=O)Nc1ccc(OCCOCCOCCOCCOCCOCCOCCOCC(=O)NCCCN(C)CCCNC(=O)c3cc(NC(=O)c4nc(NC(=O)CCNC(=O)c5cc(NC(=O)c6nc(NC(=O)CCNC(=O)c7cc(NC(=O)c8nccn8C)cn7C)cn6C)cn5C)cn4C)cn3C)cc1)c1nnc(C)n1-2", "note": "[Compound 57]", "EC50": "100 to 500"}
{"molecule": "Cc1sc2c(c1C)C(c1ccc(Cl)cc1)=N[C@@H](CC(=O)Nc1ccc(OCCOCCOCCOCCOCCOCCC(=O)NCCCOCCCNC(=O)CCNC(=O)c3nc(NC(=O)CCNC(=O)c4cc(NC(=O)c5nc(NC(=O)CCNC(=O)c6cc(NC(=O)c7nccn7C)cn6C)cn5C)cn4C)cn3C)cc1)c1nnc(C)n1-2", "note": "[Compound 58]", "EC50": "< 100"}
{"molecule": "Cc1sc2c(c1C)C(c1ccc(Cl)cc1)=N[C@@H](CC(=O)Nc1ccc(OCCOCCOCCOCCOCCOCCC(=O)NCCCCCCCNC(=O)CCNC(=O)c3nc(NC(=O)CCNC(=O)c4cc(NC(=O)c5nc(NC(=O)CCNC(=O)c6cc(NC(=O)c7nccn7C)cn6C)cn5C)cn4C)cn3C)cc1)c1nnc(C)n1-2", "note": "[Compound 59]", "EC50": "< 100"}
{"molecule": "Cc1sc2c(c1C)C(c1ccc(Cl)cc1)=N[C@@H](CC(=O)Nc1ccc(CCCOCCOCCOCCOCCOCCC(=O)NCCCN(C)CCCNC(=O)CCNC(=O)c3nc(NC(=O)CCNC(=O)c4cc(NC(=O)c5nc(NC(=O)CCNC(=O)c6cc(NC(=O)c7nccn7C)cn6C)cn5C)cn4C)cn3C)cc1)c1nnc(C)n1-2", "note": "[Compound 60]", "EC50": "100 to 500"}
{"molecule": "Cc1sc2c(c1C)C(c1ccc(Cl)cc1)=N[C@@H](CC(=O)Nc1cccc(OCCOCCOCCOCCOCCOCCC(=O)NCCCN(C)CCCNC(=O)CCNC(=O)c3nc(NC(=O)CCNC(=O)c4cc(NC(=O)c5nc(NC(=O)CCNC(=O)c6cc(NC(=O)c7nccn7C)cn6C)cn5C)cn4C)cn3C)c1)c1nnc(C)n1-2", "note": "[Compound 62]", "EC50": "< 100"}
{"molecule": "Cc1sc2c(c1C)C(c1ccc(Cl)cc1)=N[C@@H](CC(=O)Nc1ccc(CCCOCCOCCOCCOCCOCCOCCOCCOCCNC(=O)CCNC(=O)c3nc(NC(=O)CCNC(=O)c4cc(NC(=O)c5nc(NC(=O)CCNC(=O)c6cc(NC(=O)c7nccn7C)cn6C)cn5C)cn4C)cn3C)cc1)c1nnc(C)n1-2", "note": "[Compound 63]", "EC50": "< 100"}
